Reference: patent US4072759A, “Novel benzylalcohol derivatives as antidiabetics and cardiotonics” (Tanabe Seiyaku Co., Ltd., priority 1976, dated 1978)

Assays:
[1] = test system: adrenergic β1-receptor; conditions: cited from earlier work
[2] = decrease of blood sugar in mice, oral administration prior to subcutaneous injection of glucose; format: in vivo
Description: For example, when α-(3,4-dimethoxyphenethylaminomethyl)-2-hydroxybenzylalcohol is administered orally to mice at a dose of 10 mg/kg prior to subcutaneous injection of glucose (1 g/kg), said 2-hydroxybenzylalcohol derivative of the invention decreases the blood sugar level by about 30 %. On the other hand, when examined under the same conditions as above, 100 mg/kg of Phenformin (Chemical name: 1-phenethylbiguanide) are required to induce 13 % decrease in said blood sugar.

[3] = 50 % lethal dose by intravenous injection to mice; conditions: mouse, in vivo
Description: Further, the toxicity of the benzylalcohol derivative (I) of the present invention is remarkably low.

[4] = test system: adrenergic β1-receptor; assay: cardiac contractile activity (general statement)
[5] = test system: adrenergic β1-receptor; assay: increase of cardiac contractile force after injection into femoral vein of dogs; format: in vivo; conditions: injected into femoral vein, 10 μg/kg

Compound: COc1cc(CCNCC(O)c2ccc(O)c(O)c2)cc(OC)c1OC (stereo not drawn) [α-(3,4,5-trimethoxyphenethylaminomethyl)-3,4-dihydroxybenzylalcohol]
- activation of adrenergic β1-receptor [1]: selective activation of adrenergic β1 -receptor

Compound: COc1ccc(CCNCC(O)c2ccc(O)c(O)c2)cc1OC (stereo not drawn) [α-(3,4-dimethoxyphenethylaminomethyl)-3,4-dihydroxybenzylalcohol]
- activation of adrenergic β1-receptor [1]: selective activation of adrenergic β1 -receptor

Compound: N=C(N)NC(=N)NCCc1ccccc1 [Phenformin, 1-phenethylbiguanide, reference compound]
- decrease in blood sugar ([2]; mice, same conditions, 100 mg/kg): 13%

Compound: COc1ccc(CCNCC(O)c2ccc(O)cc2)cc1OC (stereo not drawn) [α-(3,4-dimethoxyphenethylaminomethyl)-4-hydroxybenzylalcohol]
- LD50 [3]: ~198 mg/kg

Compound: COc1ccc(CCNCC(O)c2ccccc2O)cc1OC (stereo not drawn) [α-(3,4-dimethoxyphenethylaminomethyl)-2-hydroxybenzylalcohol]
- decreases the blood sugar level ([2]; mice, oral, 10 mg/kg, prior to subcutaneous glucose (1 g/kg)): about 30%
- decrease of blood sugar (in words) ([2]; mouse, in vivo): remarkable decrease of blood sugar
- cardiac contractile activity [4]: no substantial cardiac contractile activity

Compound: COc1ccc(CCNCC(O)c2cccc(O)c2)cc1OC (stereo not drawn) [α-(3,4-dimethoxyphenethylaminomethyl)-3-hydroxybenzylalcohol]
- increase the cardiac contractile force [5]: 55%
